Entries after “also recorded” stand apart in the source; their conditions may differ.
Columns and labels:
[1] = tested on: LC3; experiment: Autophagy activity in cultured cells by immunoblotting using LC3 as a marker; assay type: cell-based, human; conditions: HeLa; for autophagy activity (level of LC3), control compounds: different concentrations and different times, FIG. 5
Method: In order to evaluate the autophagy activity efficacy by the compounds (Examples 1-19), HeLa cell line, which is a cell line derived from a cervical cancer patient, was cultured using a DMEM medium containing 10% FBS and 1% streptomycin/penicillin in an incubator with 5% carbon dioxide. As representative compounds among the present compounds, YOK-1107, YOK-4404 and YOK-1104 were selected. In order to measure autophagy activity according to the treatment with these selected representative compounds, the respective cells were dispensed into 6 well plates. Additional cultures were performed […] so that the cells were completely attached to the surface of the plate. To find the concentration at which the respective compounds could increase the phenomenon of autophagy, the test compounds were diluted at 1, 2, 5, 10 and 20 μM and treated. After treatment with the respective compounds, the cells were cultured again in a cell incubator for 24 hours, and then the cells were collected. To extract proteins from the collected cells, 100 ul of lysis buffer (20 mM Tris (pH 7.4), 150 mM NaCl, 1% Triton X-100, 2 mM NaF, 2 mM EDTA, 2 mM beta-glycerophosphate, 5 mM sodium orthovanadate, 1 mM PMSF, leupeptin, aprotinin) was injected into each sample, and cells were lysed. Based on the measured total protein concentration, a sample buffer was added to each sample and allowed to react at 100° C. for 5 minutes. 5 ul was taken from the samples after the reaction, and dispensed into each well of acrylamide gel, and then immunoblotting was performed.
In order to investigate the autophagy activity efficacy by the compounds (Examples 1-19), immunoblotting was performed in the same manner as in Experimental Example 2 using LC3 as a marker. As for the difference, in order to evaluate the treatment time required for activation and the activity retention time, as the representative compounds selected among the present compounds, 5 μM of YOK-1107, YOK-1204, YOK-1304, YOK-2204, YOK-3304, […] treated for 1, 3, 6, 12, 24, 48 hours. On the other hand, as the representative compounds selected among the compounds of the present invention, […] YOK-1107, YOK-1109, YOK-2207, YOK-2209, YT-4-1, YT-4-2, YT-6-1, YT-6-2, YT-6-8, YT-6-7, YT-9-1, YT-9-2 were treated for 24 hours.
In order to investigate the autophagy activity efficacy of control compounds, immunoblotting was performed in the same manner as in Experimental Example 2 by using LC3 as a marker. As the control compounds, compounds having the following structure were used.

[2] = molecular target: T1, p62 protein (Homo sapiens, UniProt Q13501); experiment: Oligomerization activity of p62 protein in cultured cells by immunoblotting; assay type: cell-based; conditions: HEK293 cell lysate treated with test compounds at room temperature for 2 hours; immunoblot, FIG. 2
T1 construct: endogenous in cells; host or cells: HEK293 (cell lysate treated with compounds)
T1 sequence (Q13501 whole entry): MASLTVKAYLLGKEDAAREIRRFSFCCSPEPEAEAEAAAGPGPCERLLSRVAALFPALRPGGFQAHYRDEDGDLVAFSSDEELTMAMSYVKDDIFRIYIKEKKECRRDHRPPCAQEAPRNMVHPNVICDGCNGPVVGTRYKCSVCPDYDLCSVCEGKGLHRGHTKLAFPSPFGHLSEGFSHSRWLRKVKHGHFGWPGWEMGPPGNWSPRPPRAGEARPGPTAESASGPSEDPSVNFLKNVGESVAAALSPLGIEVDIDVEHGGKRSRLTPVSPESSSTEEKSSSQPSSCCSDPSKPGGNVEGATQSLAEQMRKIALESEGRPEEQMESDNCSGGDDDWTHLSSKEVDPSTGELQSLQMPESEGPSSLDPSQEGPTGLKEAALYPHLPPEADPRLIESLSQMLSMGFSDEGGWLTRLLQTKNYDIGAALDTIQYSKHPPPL
From the text: In order to evaluate the p62 protein oligomerization activity efficacy by the compounds (Examples 1-19), HEK293 cell line, which is human embryonic kidney-derived cell, was collected. As representative compounds among the present compounds, YOK-1104, YOK-2204, YOK-3304, YOK-1204, YOK-4404, YOK-1107, YOK-1109, YOK-2207, YOK-2209, YT-4-1, YT-4-2, YT-6-1, YT-6-2, YT-6-7, YT-6-8, YT-9-1, YT-9-2 were selected. In order to measure intracellular p62 protein activation and oligomerization according to the treatment with these selected representative compounds, the respective cells were dispensed into a pi dish. The cells were collected after further culturing for 24 hours so that the cells were completely attached to the surface of the plate. 100 ul of lysis buffer (20 mM Tris, pH 7.4), 150 mM NaCl, 1% Triton X-100, 2 mM NaF, 2 mM EDTA, 2 mM beta-glycerophosphate, 5 mM sodium orthovanadate, 1 mM PMSF, leupeptin, aprotinin) were injected into each sample and the cells were lysed. Based on the measured total protein concentration, each sample was treated with test compounds at room temperature for 2 hours, and then a sample buffer was added and allowed to react at 95° C. for 10 minutes. 25 ul was taken from the samples after the reaction, and dispensed into each well of acrylamide gel, and then immunoblotting was performed.

[3] = 1, 2, 5, 10 and 20 μM, 24 hours, FIG. 3
[4] = 5 μM, treated for 1, 3, 6, 12, 24, 48 hours, FIG. 4
[5] = treated for 24 hours (concentration not given), FIG. 4

Row | SMILES | autophagy activity (level of LC3), control compounds [1] | p62 protein oligomerization activity (p62 monomer, oligomers and high-molecular aggregates) [2] | autophagy activity (level of LC3) [1, 5] | also measured
1 | O=Cc1ccc(OCc2ccccc2)c(OCc2ccccc2)c1 [Example 1101, 3,4-bis(benzyloxy)benzaldehyde, reference compound] | do not increase autophagy activity | – | – | –
2 | Oc1ccc(OCc2ccccc2)c(OCc2ccccc2)c1 [Example 1102, 3,4-bis(benzyloxy)phenol, reference compound] | do not increase autophagy activity | – | – | –
3 | c1ccc(COc2ccc(OC[C@H]3CO3)cc2OCc2ccccc2)cc1 [Example 1103, (R)-2-((3,4-bis(benzyloxy)phenoxy)methyl)oxirane, reference compound] | do not increase autophagy activity | – | – | –
4 | O=Cc1ccc(OCc2ccccc2)c(OCCc2ccccc2)c1 [Example 1201, 4-(benzyloxy)-3-phenethoxybenzaldehyde, reference compound] | do not increase autophagy activity | – | – | –
5 | Oc1ccc(OCc2ccccc2)c(OCCc2ccccc2)c1 [Example 1202, 4-(benzyloxy)-3-phenethoxyphenol, reference compound] | do not increase autophagy activity | – | – | –
6 | c1ccc(CCOc2cc(OC[C@H]3CO3)ccc2OCc2ccccc2)cc1 [Example 1203, (R)-2-((4-(benzyloxy)-3-phenethoxyphenoxy)methyl)oxirane, reference compound] | do not increase autophagy activity | – | – | –
7 | O=Cc1ccc(OCc2ccccc2)c(OCCCc2ccccc2)c1 [Example 1301, 4-(benzyloxy)-3-(3-phenylpropoxy)benzaldehyde, reference compound] | do not increase autophagy activity | – | – | –
8 | Oc1ccc(OCc2ccccc2)c(OCCCc2ccccc2)c1 [Example 1302, 4-(benzyloxy)-3-(3-phenylpropoxy)phenol, reference compound] | do not increase autophagy activity | – | – | –
9 | O=Cc1ccc(OCc2ccccc2)c(OCCCCc2ccccc2)c1 [Example 1401, 4-(benzyloxy)-3-(4-phenylbutoxy)benzaldehyde, reference compound] | do not increase autophagy activity | – | – | –
10 | Oc1ccc(OCc2ccccc2)c(OCCCCc2ccccc2)c1 [Example 1402, 4-(benzyloxy)-3-(4-phenylbutoxy)phenol, reference compound] | do not increase autophagy activity | – | – | –
11 | O=Cc1ccc(OCCc2ccccc2)c(OCCc2ccccc2)c1 [Example 2201, 3,4-diphenethoxybenzaldehyde, reference compound] | do not increase autophagy activity | – | – | –
12 | Oc1ccc(OCCc2ccccc2)c(OCCc2ccccc2)c1 [Example 2202, 3,4-diphenethoxyphenol, reference compound] | do not increase autophagy activity | – | – | –
13 | O=Cc1ccc(OCCCc2ccccc2)c(OCCCc2ccccc2)c1 [Example 3301, 3,4-bis(3-phenylpropoxy)benzaldehyde] | – | – | – | autophagy activity (level of LC3) [1, 3]: increasing the autophagy activity
14 | Oc1ccc(OCCCCc2ccccc2)c(OCCCCc2ccccc2)c1 [Example 4402, 3,4-bis(4-phenylbutoxy)phenol, reference compound] | do not increase autophagy activity | – | – | –
15 | CC(C)NC[C@@H](O)COc1ccc(OCc2ccccc2)c(OCc2ccccc2)c1 [YOK-1104, (R)-1-(3,4-bis(benzyloxy)phenoxy)-3-(isopropylamino)propan-2-ol] | – | increasing the p62 protein oligomerization activity | – | autophagy activity (level of LC3) [1, 3]: increasing the autophagy activity
16 | N=C(N)NC[C@@H](O)COc1ccc(OCc2ccccc2)c(OCc2ccccc2)c1 [YOK-1107, (R)-1-(3-(3,4-bis(benzyloxy)phenoxy)-2-hydroxypropyl)guanidine] | – | increasing the p62 protein oligomerization activity | gradually increased | autophagy activity (level of LC3) [1, 4]: gradually increased; also recorded: increasing the autophagy activity; autophagy activity (level of LC3) [1, 3]: increasing the autophagy activity
17 | N=C(N)NCCNC[C@@H](O)COc1ccc(OCc2ccccc2)c(OCc2ccccc2)c1 [YOK-1109, (R)-1-(2-((3-(3,4-bis(benzyloxy)phenoxy)-2-hydroxypropyl)amino)ethyl)guanidine] | – | increasing the p62 protein oligomerization activity | gradually increased | –
18 | CC(C)NC[C@@H](O)COc1ccc(OCc2ccccc2)c(OCCCc2ccccc2)c1 [YOK-1304, (R)-1-(4-(benzyloxy)-3-(3-phenylpropoxy)phenoxy)-3-(isopropylamino)propan-2-ol] | – | – | – | autophagy activity (level of LC3) [1, 4]: gradually increased; also recorded: increasing the autophagy activity
19 | N=C(N)NC[C@@H](O)COc1ccc(OCCc2ccccc2)c(OCCc2ccccc2)c1 [YOK-2207, (R)-1-(3-(3,4-diphenethoxyphenoxy)-2-hydroxypropyl)guanidine] | – | increasing the p62 protein oligomerization activity | gradually increased | –
20 | N=C(N)NCCNC[C@@H](O)COc1ccc(OCCc2ccccc2)c(OCCc2ccccc2)c1 [YOK-2209, (R)-1-(2-((3-(3,4-diphenethoxyphenoxy)-2-hydroxypropyl)amino)ethyl)guanidine] | – | increasing the p62 protein oligomerization activity | gradually increased | –
21 | CC(C)NC[C@@H](O)COc1ccc(OCc2ccc(Cl)cc2)c(OCc2ccc(Cl)cc2)c1 [YT-4-1, (R)-1-(3,4-bis((4-chlorobenzyl)oxy)phenoxy)-3-(isopropylamino)propan-2-ol] | – | increasing the p62 protein oligomerization activity | gradually increased | –
22 | CC(C)NC[C@@H](O)COc1ccc(OCc2ccc(F)cc2)c(OCc2ccc(F)cc2)c1 [YT-4-2, (R)-1-(3,4-bis((4-fluorobenzyl)oxy)phenoxy)-3-(isopropylamino)propan-2-ol] | – | increasing the p62 protein oligomerization activity | gradually increased | –
23 | OCCNC[C@@H](O)COc1ccc(OCc2ccc(Cl)cc2)c(OCc2ccc(Cl)cc2)c1 [YT-6-1] | – | increasing the p62 protein oligomerization activity | gradually increased | –
24 | OCCNC[C@@H](O)COc1ccc(OCc2ccc(F)cc2)c(OCc2ccc(F)cc2)c1 [YT-6-2] | – | increasing the p62 protein oligomerization activity | gradually increased | –
25 | OCCNC[C@@H](O)COc1cccc(OCc2ccc(Cl)cc2)c1 [YT-6-7, (R)-1-(3-((4-chlorobenzyl)oxy)phenoxy)-3-((2-hydroxyethyl)amino)propan-2-ol] | – | increasing the p62 protein oligomerization activity | gradually increased | –
